Laboratory results as given in the NIST ThermoML archive (doi:10.1021/acs.jced.6b00293).
Numbers after ± are expanded uncertainties.

How the values were obtained:
[1] = Boiling temperature at pressure P; conditions: Liquid, Ebulliometric method (Recirculating still)
[2] = Liquid, Ebulliometric method (Recirculating still)

| Boiling temperature at pressure P ([1]; 20 kPa) [°C] | Boiling temperature at pressure P ([1]; 40 kPa) [°C] | Boiling temperature at pressure P ([1]; 60 kPa) [°C] | Boiling temperature at pressure P ([1]; 80 kPa) [°C] | Boiling temperature at pressure P ([1]; 101.3 kPa) [°C] | vapor or sublimation pressure ([2]; 315.14 K) [kPa] | vapor or sublimation pressure ([2]; 329.42 K) [kPa] | vapor or sublimation pressure ([2]; 338.61 K) [kPa] | vapor or sublimation pressure ([2]; 345.53 K) [kPa] | vapor or sublimation pressure ([2]; 351.62 K) [kPa] | Structure (SMILES) |
| --- | --- | --- | --- | --- | --- | --- | --- | --- | --- | --- |
| 34.77 ± 0.46 | 52.32 ± 0.65 | 63.93 ± 0.68 | 72.94 ± 0.72 | 80.96 ± 0.81 |  |  |  |  |  | C1CCCCC1 [cyclohexane] |
|  |  |  |  |  | 20 ± 1 | 40 ± 1 | 60 ± 1 | 80 ± 2 | 101.3 ± 1.8 | CCO [ethanol] |
